According to ChEMBL document CHEMBL1139192, “Novel bis(indolyl)maleimide pyridinophanes that are potent, selective inhibitors of glycogen synthase kinase-3” (Bioorg Med Chem Lett, 2007):

Target: Glycogen synthase kinase-3 beta (Homo sapiens, UniProt P49841)
Assay: Inhibition of human recombinant GSK3-beta

Sequence of Glycogen synthase kinase-3 beta (P49841 whole entry): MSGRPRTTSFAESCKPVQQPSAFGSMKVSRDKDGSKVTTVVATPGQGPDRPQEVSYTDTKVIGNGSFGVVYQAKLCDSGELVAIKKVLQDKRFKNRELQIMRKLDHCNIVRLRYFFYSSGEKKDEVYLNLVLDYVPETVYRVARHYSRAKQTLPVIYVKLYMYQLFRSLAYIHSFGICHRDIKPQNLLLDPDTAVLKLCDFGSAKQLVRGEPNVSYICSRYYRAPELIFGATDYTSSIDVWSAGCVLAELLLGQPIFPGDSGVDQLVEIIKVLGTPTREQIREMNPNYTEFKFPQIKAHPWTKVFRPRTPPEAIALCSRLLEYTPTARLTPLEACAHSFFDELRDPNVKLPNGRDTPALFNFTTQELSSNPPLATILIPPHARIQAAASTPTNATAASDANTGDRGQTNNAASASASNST

Molecule `CN(C)c1nc2ccc1CCCn1cc(c3ccccc31)C1=C(C(=O)NC1=O)c1cn(c3ccccc13)CCC2` has an IC50 of 37 nM.
